Measurements as given in patent US20140303092A1 (CHIMERIX, INC., priority 2011, published 2014).

Experiment: Study HDP-CDV-201: safety and tolerability (adverse events, laboratory abnormalities, discontinuations)
Type: in vivo, human (adult allogeneic HSCT recipients)
Description: Clinical Studies of HDP-CDV were performed and described in detail in the following Examples. For example, HDP-CDV-201 is a placebo-controlled, dose-escalating trial in HSCT CMV (R+) recipients, evaluating the ability of HDP-CDV to prevent or control CMV infection was carried out. Five cohorts were established in which participants or subjects received either placebo or the HDP-CDV orally, in doses ranging from 40 mg weekly (QW) to 200 mg twice weekly (BIW). Subjects who were post-HSCT were enrolled at the time of engraftment and randomized to HDP-CDV or placebo (3 to 1 ratio) and received blinded therapy until approximately 100 day post-transplantation. HDP-CDV doses were 40 mg QW, 100 mg QW, 200 mg QW, 200 mg BIW and 100 mg BIW. Escalation to the next dose was decided by the data monitoring committee after review of the safety data from the previous Cohort. Subjects who developed CMV disease or CMV infection requiring pre-emptive therapy with local standard of care were discontinued from blinded therapy and followed for 4 weeks. Subjects who completed treatment with blinded therapy were followed for 8 weeks post-therapy.
Data from Study HDP-CDV-201 also provided characterization of the safety and tolerability profile of HDP-CDV when administered for the prevention or control of CMV infection in high risk (R^+) post-HSCT adult subjects.
The Safety population (SAFETY) included all randomized subjects who took at least one dose of study treatment. This population was used to summarize safety outcomes based on the treatment actually received, in cases where a subject was treated contrary to the randomization schedule.
The safety and tolerability profile of HDP-CDV, including subject demographics and Baseline characteristics; the AE profile; and laboratory abnormalities of interest were analyzed in the cohorts followed in this investigation.
Subjects completing the treatment period received a full course of study medication; those completing the entire study attended visits through 8 weeks of follow up. Subjects who discontinued treatment may have done so for protocol specified reasons (e.g. development of clinically significant CMV infection requiring preemptive treatment with excluded anti-CMV medications) or for other reasons (e.g., withdrawal, adverse events, loss to follow-up). The disposition of subjects in Study HDP-CDV-201 during the double-blind, placebo-controlled treatment period (through Week 11) is listed by dosing Cohort in TABLE 23.
Adverse events were examined by severity to ensure that all safety signals were identified in this study population. Because of the frequency of events in HSCT recipients, particular attention was given to evaluation of Grade 3 […], 4 (severe), and 5 (fatal) adverse events.
Only those preferred terms for which at least one Grade 3 or higher event was experienced in any treatment group are listed. Cytomegalovirus-related AEs are excluded from this analysis.
HDP-CDV is a lipid conjugate of CDV. Because CDV is known to have adverse effects on renal function and bone marrow, decreased GFR and persistent neutropenia were identified as AEs of special interest. Key renal and hematological (TABLE 30) laboratory parameters were measured and listed below by Study HDP-CDV-201 treatment groups. TABLE 30 includes abnormal levels of serum creatinine, neutrophils, platelets, WBCs, and hemoglobin and includes data at Screening and during the treatment period.
A common metric for unit based dosing of medications is by weight (mg/kg). When the distribution of weights was examined for all subjects participating in the study, the median was 78 kg and the lower 25th percentile weight was approximately 65 kg, which translates to a cut-off of ˜3 mg/kg for a 200 mg total weekly dose. Based upon this approach, a cut-off of 3 mg/kg was used to assess the frequency of diarrhea and associated GI AEs reported for the subjects in Cohorts 3 or 4a (TABLE 40).

[1] = Cohort 4, 200 mg BIW, through Week 11

CCCCCCCCCCCCCCCCOCCCOP(=O)(O)COC(CO)Cn1ccc(N)nc1=O (stereo not drawn) [HDP-CDV]
13 (26.0%): Gastrointestinal AE Abdominal pain, subjects (Cohort 4A, 100 mg BIW)
5 (16.7%) n (%): TEAE Cytomegalovirus viremia (Cohort 4, 200 mg BIW, N = 30) | TEAE Decreased appetite (Cohort 4, 200 mg BIW, N = 30) | TEAE Hyperbilirubinaemia (Cohort 4, 200 mg BIW, N = 30) | TEAE Hypokalaemia (Cohort 4, 200 mg BIW, N = 30) | TEAE Thrombocytopenia (Cohort 4, 200 mg BIW, N = 30)
3 (6.0%): AST (any time during therapy) >5 × ULN-10 × ULN, subjects (Cohort 4A, 100 mg BIW) | Alkaline Phosphatase (any time during therapy) >2.5-5.0 × ULN, subjects (Cohort 4A, 100 mg BIW) | Gastrointestinal AE Flatulence, subjects (Cohort 4A, 100 mg BIW) | Hepatobiliary clinical AE Hyperbilirubinaemia, subjects (Cohort 4A, 100 mg BIW)
not related: Relationship of hepatobiliary AE hyperbilirubinemia, subject 4042 (Cohort 4, drug interrupted)
recovered/resolved: Outcome of hepatobiliary AE hyperbilirubinemia, subject 4042 (Cohort 4, drug interrupted) | Outcome of hepatobiliary AE acute liver injury, subject 4008 (Cohort 4, drug withdrawn)
1: Grade of hepatobiliary AE hyperbilirubinemia, subject 4042 (Cohort 4, drug interrupted)
11 (36.7%) n (%): TEAE Abdominal pain (Cohort 4, 200 mg BIW, N = 30) | TEAE Nausea (Cohort 4, 200 mg BIW, N = 30)
possibly related: Relationship of hepatobiliary AE acute liver injury, subject 4008 (Cohort 4, drug withdrawn)
0 n (%): TEAE Acute Myeloid Leukemia recurrent (Cohort 4, 200 mg BIW, N = 30) | TEAE Fatigue (Cohort 4, 200 mg BIW, N = 30) | TEAE Renal Failure (Cohort 4, 200 mg BIW, N = 30)
10 (33.3%) n (%): TEAE ALT increased (Cohort 4, 200 mg BIW, N = 30)
26 (52.0%): Gastrointestinal AE Diarrhoea, subjects (Cohort 4A, 100 mg BIW)
7 (23.3%) n (%): TEAE AST increased (Cohort 4, 200 mg BIW, N = 30) | Subjects completed treatment [1]
23 (76.7%) n (%): Subjects who permanently discontinued treatment [1]
24 (80.0%) n (%): TEAE Acute GVHD (Cohort 4, 200 mg BIW, N = 30)
1 subject(s): subjects discontinued due to neutropenia (Cohort 4A)
3 (10.0%) n (%): TEAE Abdominal pain, Upper (Cohort 4, 200 mg BIW, N = 30) | TEAE Acute Renal Failure (Cohort 4, 200 mg BIW, N = 30) | TEAE Back Pain (Cohort 4, 200 mg BIW, N = 30) | TEAE Blood lactate dehydrogenase increased (Cohort 4, 200 mg BIW, N = 30) | TEAE Dysgeusia (Cohort 4, 200 mg BIW, N = 30) | TEAE Gamma-glutamyltransferase increased (Cohort 4, 200 mg BIW, N = 30) | TEAE Generalized oedema (Cohort 4, 200 mg BIW, N = 30) | TEAE Hyperkalemia (Cohort 4, 200 mg BIW, N = 30) | TEAE Hypocalcaemia (Cohort 4, 200 mg BIW, N = 30) | TEAE Increased leukocytosis (Cohort 4, 200 mg BIW, N = 30) | TEAE Liver function test abnormal (Cohort 4, 200 mg BIW, N = 30) | TEAE Malnutrition (Cohort 4, 200 mg BIW, N = 30) | TEAE Oedema peripheral (Cohort 4, 200 mg BIW, N = 30) | TEAE Recurrent flatulence (Cohort 4, 200 mg BIW, N = 30)
21 (70.0%) n (%): TEAE Diarrhoea (Cohort 4, 200 mg BIW, N = 30)
1 (3.3%) n (%): TEAE Arthralgias (Cohort 4, 200 mg BIW, N = 30) | TEAE Oral Candidiasis (Cohort 4, 200 mg BIW, N = 30) | TEAE Pneumonia (Cohort 4, 200 mg BIW, N = 30) | TEAE Staphylococcal Bacteremia (Cohort 4, 200 mg BIW, N = 30)
2 (4.0%): AST (any time during therapy) >3 × ULN-5 × ULN, subjects (Cohort 4A, 100 mg BIW) | GI AE Leading to Study Drug Discontinuation: Diarrhoea, subjects (Cohort 4A, 100 mg BIW) | Gastrointestinal AE Abdominal pain upper, subjects (Cohort 4A, 100 mg BIW) | Gastrointestinal AE Constipation, subjects (Cohort 4A, 100 mg BIW) | Gastrointestinal AE Retching, subjects (Cohort 4A, 100 mg BIW)
17 (34.0%): Gastrointestinal AE Nausea, subjects (Cohort 4A, 100 mg BIW)
8 (17.4%): Alkaline Phosphatase (Screening) >ULN-[…] ULN, subjects (Cohort 4A, 100 mg BIW)
8 (26.7%) n (%): TEAE Hyperglycaemia (Cohort 4, 200 mg BIW, N = 30) | TEAE Vomiting (Cohort 4, 200 mg BIW, N = 30)
1 (2.2%): ALT (Screening) >3 × ULN-5 × ULN, subjects (Cohort 4A, 100 mg BIW) | ALT (Screening) >5 × ULN-10 × ULN, subjects (Cohort 4A, 100 mg BIW) | ALT (Screening) >10 × ULN-20 × ULN, subjects (Cohort 4A, 100 mg BIW) | AST (Screening) >3 × ULN-5 × ULN, subjects (Cohort 4A, 100 mg BIW) | AST (Screening) >5 × ULN-10 × ULN, subjects (Cohort 4A, 100 mg BIW) | AST (Screening) >10 × ULN-20 × ULN, subjects (Cohort 4A, 100 mg BIW)
4 (8.0%): ALT (any time during therapy) >5 × ULN-10 × ULN, subjects (Cohort 4A, 100 mg BIW) | Gastrointestinal AE Abdominal discomfort, subjects (Cohort 4A, 100 mg BIW) | Gastrointestinal AE Dyspepsia, subjects (Cohort 4A, 100 mg BIW)
0%: Dyspepsia leading to study drug withdrawal (Cohort 4, 200 mg BIW, N = 30) | Vomiting leading to study drug withdrawal (Cohort 4, 200 mg BIW, N = 30)
1 (2.0%): ALT (any time during therapy) >10 × ULN-20 × ULN, subjects (Cohort 4A, 100 mg BIW) | ALT (any time during therapy) >20 × ULN, subjects (Cohort 4A, 100 mg BIW) | GI AE Leading to Study Drug Discontinuation: Abdominal pain, subjects (Cohort 4A, 100 mg BIW) | GI AE Leading to Study Drug Discontinuation: Nausea, subjects (Cohort 4A, 100 mg BIW) | GI AE Leading to Study Drug Discontinuation: Vomiting, subjects (Cohort 4A, 100 mg BIW) | Gastrointestinal AE Haemorroids, subjects (Cohort 4A, 100 mg BIW)
1 (3.3%): Nausea leading to study drug withdrawal (Cohort 4, 200 mg BIW, N = 30)
11 (22.0%): Alkaline Phosphatase (any time during therapy) >ULN-[…] ULN, subjects (Cohort 4A, 100 mg BIW)
4 (13.3%) n (%): TEAE Neutropenia (Cohort 4, 200 mg BIW, N = 30)
22 (44.0%): Gastrointestinal AE Vomiting, subjects (Cohort 4A, 100 mg BIW)
2 (6.7%) n (%): TEAE Anxiety (Cohort 4, 200 mg BIW, N = 30) | TEAE Creatinine increased (Cohort 4, 200 mg BIW, N = 30) | TEAE GI Reflux Disease (Cohort 4, 200 mg BIW, N = 30) | TEAE Hyponatraemia (Cohort 4, 200 mg BIW, N = 30) | TEAE Insomnia (Cohort 4, 200 mg BIW, N = 30) | TEAE Pyrexia (Cohort 4, 200 mg BIW, N = 30) | TEAE Tremor (Cohort 4, 200 mg BIW, N = 30)
4 (13.3%): All AEs, Grade 5 (deaths) (Cohort 4, 200 mg BIW, N = 30, entire study duration)
10 (20.0%): ALT (any time during therapy) >3 × ULN-5 × ULN, subjects (Cohort 4A, 100 mg BIW)
0: ALT (Screening) >20 × ULN, subjects (Cohort 4A, 100 mg BIW) | AST (Screening) >20 × ULN, subjects (Cohort 4A, 100 mg BIW) | AST (any time during therapy) >10 × ULN-20 × ULN, subjects (Cohort 4A, 100 mg BIW) | AST (any time during therapy) >20 × ULN, subjects (Cohort 4A, 100 mg BIW) | Alkaline Phosphatase (Screening) >2.5-5.0 × ULN, subjects (Cohort 4A, 100 mg BIW) | Alkaline Phosphatase (Screening) >5.0-20.0 × ULN, subjects (Cohort 4A, 100 mg BIW) | Alkaline Phosphatase (Screening) >20.0 × ULN, subjects (Cohort 4A, 100 mg BIW) | Alkaline Phosphatase (any time during therapy) >5.0-20.0 × ULN, subjects (Cohort 4A, 100 mg BIW) | Alkaline Phosphatase (any time during therapy) >20.0 × ULN, subjects (Cohort 4A, 100 mg BIW) | GI AE Leading to Study Drug Discontinuation: Dyspepsia, subjects (Cohort 4A, 100 mg BIW) | Gastrointestinal AE Abdominal distention, subjects (Cohort 4A, 100 mg BIW) | Gastrointestinal AE Diverticulum intestinal haemorragic, subjects (Cohort 4A, 100 mg BIW) | Gastrointestinal AE Dysphagia, subjects (Cohort 4A, 100 mg BIW) | Gastrointestinal AE Epigastric discomfort, subjects (Cohort 4A, 100 mg BIW) | Gastrointestinal AE GERD, subjects (Cohort 4A, 100 mg BIW) | Gastrointestinal AE Gastritis, subjects (Cohort 4A, 100 mg BIW) | Gastrointestinal AE Haematochezia, subjects (Cohort 4A, 100 mg BIW) | Gastrointestinal AE Large intestinal ulcer, subjects (Cohort 4A, 100 mg BIW) | Gastrointestinal AE Odynophagia, subjects (Cohort 4A, 100 mg BIW) | Gastrointestinal AE Oesophagitis, subjects (Cohort 4A, 100 mg BIW) | Hepatobiliary clinical AE Cholelithiasis, subjects (Cohort 4A, 100 mg BIW) | Hepatobiliary clinical AE Hepatomegaly, subjects (Cohort 4A, 100 mg BIW) | Hepatobiliary clinical AE Jaundice, subjects (Cohort 4A, 100 mg BIW) | Hepatobiliary clinical AE Liver injury, subjects (Cohort 4A, 100 mg BIW)
5 (10.0%): GI AEs Leading to Study Drug Discontinuation: Total subjects discontinued (Cohort 4A, 100 mg BIW)
3: Grade of hepatobiliary AE acute liver injury, subject 4008 (Cohort 4, drug withdrawn)
